Among the data in patent publication US6140341A, “Aminoalkyl and acylaminoalkyl ethers, process for their preparation, and their use as bradykinin receptor antagonists” (Hoechst Aktiengesellschaft, priority 1996, dated 2000) are Ki and IC50 values, retold here.

For assay [1], the target named is T1, bradykinin B2 receptor (Cavia porcellus, UniProt O70526).
T1 construct: preparations of membranes from the guinea pig ileum; from tissue; host or cells: guinea pig ileum membranes
T1 sequence (O70526 1-372): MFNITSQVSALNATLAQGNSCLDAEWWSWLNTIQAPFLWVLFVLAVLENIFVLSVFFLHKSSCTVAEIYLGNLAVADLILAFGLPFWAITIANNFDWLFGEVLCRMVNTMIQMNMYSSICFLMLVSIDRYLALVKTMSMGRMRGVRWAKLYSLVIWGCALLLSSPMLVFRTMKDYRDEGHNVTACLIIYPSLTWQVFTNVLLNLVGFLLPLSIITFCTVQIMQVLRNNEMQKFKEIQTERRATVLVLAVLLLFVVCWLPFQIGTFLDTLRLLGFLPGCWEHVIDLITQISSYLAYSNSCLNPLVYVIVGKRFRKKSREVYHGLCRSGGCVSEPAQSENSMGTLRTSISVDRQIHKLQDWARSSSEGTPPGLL
Nature of the assay: Affinity for the bradykinin B2 receptor on membrane preparations from guinea pig ileum (3H-bradykinin competition). The following applies: 3H-bradykinin (0.25 to 0.3 nMol/l), guinea pig ileum membranes, pH 6.8, room temperature, 60 minutes. The assay is classed as binding. As for the experimental part:
Determination of the affinity of the compounds of the formula (I) for the bradykinin B2 receptor took place on preparations of membranes from the guinea pig ileum (R. B. Innis et al., Proc. Natl. Acad. Sci. USA; […] (1981) 2630) by the following method:
1. Ligand: ^3 H-BRADYKININ (from NEN Du Pont)
25 mM TES (SIGMA, Order No.: T-4152)
1 mM 1,10-phenanthroline (SIGMA; Order No.: P-9375)
25 mM TES (SIGMA; Order No.: T-4152)
0.1% albumin, bovine (SIGMA; Order No.: A-7906)
140 μg/ml bacitracin (SIGMA; Order No.: B-0125)
1 mM dithiothreitol (SIGMA; Order No.: D-0632)
1 μM captopril-1-[(2S)-3-mercapto-2-methylpropionyl]-L-proline
Both buffers are adjusted to pH 6.8 with 5 molar NaOH.
Guinea pig ilea are carefully squeezed out to remove most of the intestinal contents and are cleaned in 0.9% strength NaCl solution.
The pieces of ilea about 2 cm long are transferred into ice-cold TES buffer (about 1 g/10 ml) and homogenized with an Ultraturrax in an ice bath for about 30 sec. The homogenate is then filtered through 3 layers of gauze and the filtrate is centrifuged at 50,000 g for 10 minutes.
The supernatant is discarded, and the pellet is rehomogenized in the same volume of TES buffer and again centrifuged at 50,000 g for 10 minutes. The pellet is rehomogenized in incubation buffer (about 1 g/5 ml) and frozen in 2 ml portions in cryotubes at -70° C.
The protein concentration in the finished membrane suspension is determined by the LOWRY method and should be about 15 μg/100 μl.
All the incubations are carried out in a volume of 200 μl in microtiter plates (96×300 μl) at room temperature for 60 minutes. All mixtures in incubation bufler. 50 μl of the radioligands, 50 μl of the product to be tested and 100 μl of the membrane suspension are successively pipetted into these in the wells of the microtiter plate. […]
a) Saturation experiments (hot saturation): […]
Nonspecific binding: The nonspecific binding must be determined for each concentration of the radioactive ligand. […]

In assay [2] the test system is bradykinin-induced contraction of the guinea pig ileum. Nature of the assay: Bradykinin-antagonistic effect on the bradykinin-induced contraction of the isolated guinea pig ileum. Conditions: Cavia porcellus, 10 min, Tyrode solution 37° C., antagonist action time 10 min. An excerpt:
Furthermore, to determine the bradykinin-antagonistic effect of the compounds of the formula (I) it is possible to measure their effect on the bradykinin-induced contraction of the guinea pig ileum by the following protocol:
Guinea pigs weighing about 300 g (Morioth strain,--) are sacrificed by a blow to the back of the neck and are exsanguinated. A length of about 20 cm of ileum is dissected out and rinsed with Tyrode solution (Record syringe), thus removing intestinal contents. It is then divided into segments 1.5 cm long. These are fixed in organ baths with a capacity of 10 ml which are filled with Tyrode solution, and are connected to strain gauges (isometric contraction measurement). The initial load is 1 g. The Tyrode solution is heated in a water bath to 37° C., and compressed air is bubbled through.
After an interval of 30 min, the experiment is started. After recording the biological zero line, bradykinin is added to each organ bath in a final concentration of […], and the concentration is recorded. Then, after rinsing with Tyrode solution for 3 min and a resting period of 20 min, bradykinin is again added. The maximum contraction is reached (control). Rinsing and resting period repeated. The bradykinin antagonist is then added (action time 10 min.). […] The experiment is recorded on a pen recorder. […]

Structures are written as SMILES. pIC50, pKi: −log10 of the molar value.

By pKi is commonly meant the Ki on a negative log10 scale, so that one unit is a factor of ten. Take `COc1ccc(/C=C/C(=O)NCCOc2ccc(Cl)c(COc3cccc4ccc(C)nc34)c2Cl)cc1` [Example 6, 8-[2,6-dichloro-3-(2-N-(trans-4-methoxycinnamoyl)aminoethoxy)benzyloxy]-2-methylquinoline]: the pKi in assay [1] is 7.49.
Usually pIC50 stands for the IC50 on a negative log10 scale, so that one unit is a factor of ten. In assay [2], `Cc1ccc2cccc(OCc3c(Cl)ccc(OCCN)c3Cl)c2n1` [Example 1, 8-[3-(2-aminoethoxy)-2,6-dichlorobenzyloxy]-2-methylquinoline] showed a pIC50 of 5.74.
In assay [1], `Cc1ccc2cccc(OCc3c(Cl)ccc(OCCNC(=O)/C=C/c4ccc(N)cc4)c3Cl)c2n1` [Example 2, 8-[3-(2-N-(trans-4-aminocinnamoyl)aminoethoxy)-2,6-dichlorobenzyloxy]-2-methylquinoline] gave a pKi of 7.70.
Same read-out and setting: under `Cc1ccc2cccc(OCc3c(Cl)ccc(OCCNC(=O)/C=C/c4ccccc4)c3Cl)c2n1` [Example 5, 8-[2,6-dichloro-3-(trans-2-N-cinnamoylaminoethoxy)benzyloxy]-2-methylquinoline] stands 7.21.
